From patent publication US20130116277A1, “ALDO-KETO REDUCTASE SUBFAMILY 1C3 (AKR1C3) INHIBITORS” (priority 2007, published 2013)
“And” between values parts separate entries of the source, which are not always exact repeats. Equal entries are not always repeated. Where two headings read alike, the source gives them in different places.

Experiments:
[1] = target: ER-β (Homo sapiens, UniProt Q92731); experiment: ER-β ligand binding domain competitive binding with [3H]Estradiol
[2] = Liver microsome incubation (HLM Phase I and Phase I + II), LC-MS/MS; type: in vitro ADME, human; details: for microsomal CLint: human, human liver microsomes
Method: Stock solutions of prespective AKR1C3 inhibitors were prepared in DMSO at 5 mM and were incubated with liver microsomes (0.1 mg/mL). Incubations were conducted at 37° C. in a shaking water bath for 10 minutes (microsomes). Incubation durations were selected based on time course study (microsomes) or published literature (recombinant enzymes). Prepared samples were analyzed using LC-MS/MS.

[3] = target: T1, ER-alpha (Homo sapiens, UniProt P03372); experiment: ER-alpha transactivation (ERE-LUC luciferase) in HEK-293 cells; type: cell-based; details: for EC50: read-out: Agonist ER-α; for IC50: antagonist mode, in combination with estradiol, read-out: Antagonist ER-α;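 as to all read-outs here: HEK-293 cells co-transfected with an ER-alpha expression plasmid, an ERE-driven firefly luciferase reporter and a CMV Renilla control, with the firefly signal normalized to Renilla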
T1 construct: expressed in transfected cells; host or cells: HEK-293
T1 sequence (P03372 1-595): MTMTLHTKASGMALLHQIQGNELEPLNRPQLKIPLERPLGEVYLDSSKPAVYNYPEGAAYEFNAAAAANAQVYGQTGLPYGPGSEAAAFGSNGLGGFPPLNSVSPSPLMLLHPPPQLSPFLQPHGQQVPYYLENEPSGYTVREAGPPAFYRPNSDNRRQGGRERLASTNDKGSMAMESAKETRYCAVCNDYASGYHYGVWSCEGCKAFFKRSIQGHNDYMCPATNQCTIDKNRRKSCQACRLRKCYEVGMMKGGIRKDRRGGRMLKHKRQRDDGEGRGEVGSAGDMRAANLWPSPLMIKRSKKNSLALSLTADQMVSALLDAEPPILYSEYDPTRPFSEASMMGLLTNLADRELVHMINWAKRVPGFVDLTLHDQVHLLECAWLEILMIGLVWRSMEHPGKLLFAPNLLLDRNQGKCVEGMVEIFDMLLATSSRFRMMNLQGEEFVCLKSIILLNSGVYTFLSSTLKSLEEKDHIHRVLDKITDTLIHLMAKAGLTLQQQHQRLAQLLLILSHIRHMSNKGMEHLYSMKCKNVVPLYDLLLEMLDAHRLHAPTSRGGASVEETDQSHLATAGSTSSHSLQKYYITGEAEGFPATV

[4] = target: T2, AKR1C3 (Homo sapiens, UniProt P42330); experiment: cell-based
T2 sequence (P42330 1-323): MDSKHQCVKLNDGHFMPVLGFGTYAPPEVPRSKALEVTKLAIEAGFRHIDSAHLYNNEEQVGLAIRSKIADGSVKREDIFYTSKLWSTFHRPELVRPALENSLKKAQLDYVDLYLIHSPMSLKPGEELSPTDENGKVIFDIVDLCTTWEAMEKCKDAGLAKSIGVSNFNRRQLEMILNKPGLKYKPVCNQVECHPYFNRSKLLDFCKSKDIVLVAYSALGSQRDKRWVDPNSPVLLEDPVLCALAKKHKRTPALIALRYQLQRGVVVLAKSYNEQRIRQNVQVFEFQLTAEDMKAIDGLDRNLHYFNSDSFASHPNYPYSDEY
Method: (§1) AKR1C3 expression was checked by Western blot to ensure that the cells over-express AKR1C3. […] Medium was changed to RPMI+1% csFBS without phenol red and maintained in this medium for 3 days to reduce basal hormone levels. […] The data was plotted in SigmaPlot (Systat Software Inc.) and the IC50 values for inhibitors were calculated.
(§2) HEK-293 cells stably transfected with AKR1C3 were plated in 24 well plates and were maintained in RPMI+1% csFBS without phenol red for 2 days to reduce the basal steroid levels.

[5] = target: T3, ER-beta (Homo sapiens, UniProt Q92731); experiment: ER-beta transactivation (ERE-LUC luciferase) in HEK-293 cells; type: cell-based; details: for EC50: read-out: Agonist ER-β; for IC50: antagonist mode, in combination with estradiol, read-out: Antagonist ER-β;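 as to all read-outs here: HEK-293 cells transiently transfected with an ER-β expression plasmid and ERE-LUC reporter, firefly luciferase read-out normalized to co-transfected Renilla luciferase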
T3 construct: expressed in transfected cells; host or cells: HEK-293
T3 sequence (Q92731 whole entry, species assumed): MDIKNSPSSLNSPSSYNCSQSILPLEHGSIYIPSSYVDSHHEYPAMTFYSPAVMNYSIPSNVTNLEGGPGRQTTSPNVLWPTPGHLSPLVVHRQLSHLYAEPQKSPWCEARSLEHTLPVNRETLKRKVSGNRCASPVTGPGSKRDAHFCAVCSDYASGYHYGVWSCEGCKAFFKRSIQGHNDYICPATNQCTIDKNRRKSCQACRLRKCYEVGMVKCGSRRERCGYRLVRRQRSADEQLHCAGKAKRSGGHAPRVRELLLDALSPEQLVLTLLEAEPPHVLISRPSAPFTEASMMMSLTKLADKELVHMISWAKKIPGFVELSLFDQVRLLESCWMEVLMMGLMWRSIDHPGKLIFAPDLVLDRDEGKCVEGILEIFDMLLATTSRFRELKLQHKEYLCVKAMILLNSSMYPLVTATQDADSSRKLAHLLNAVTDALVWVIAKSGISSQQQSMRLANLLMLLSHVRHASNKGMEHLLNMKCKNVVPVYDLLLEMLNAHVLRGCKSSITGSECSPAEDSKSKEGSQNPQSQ

[6] = target: T2, AKR1C3; experiment: Purified AKR1C3 enzyme assay, [14C]-A'dione to testosterone, TLC based; type: biochemical; parameters: GST (N); made in house; host or cells: bacterial culture, IPTG induced (E. coli BL21-DE3 is named only for the crystallography preparation)
Method: Perkin Elmer; […] American Radiolabeled Chemicals, St. Louis, Mo.). The reaction was stopped by the addition of 400 μl ethyl acetate, vortexed, and spun for […] at 2000 rpm. The upper layer was transferred to a new tube and air dried. The pellet was resuspended in 25 μl of methanol, spotted on TLC plates and fractionated in TLC chamber with 3:1 chloroform:ethyl acetate. Once the mobile phase reached the top, the plates were dried and exposed to a phosphoimager screen overnight. […] Perkin Elmer) was incubated at 37° C. for 60 min. The reaction was stopped by the addition of 400 μl ethyl acetate, vortexed, and spun for […] at 2000 rpm. The upper layer was transferred to a new tube and air dried. The pellet was resuspended in 25 μl of methanol, spotted on TLC plates and fractionated in TLC chamber with 3:1 chloroform:ethyl acetate. Once the mobile phase reached the top, the plates were dried and exposed to a phosphoimager screen overnight.

[7] = target: T4, ER-α (Homo sapiens, UniProt P03372); experiment: ER-α ligand binding domain competitive binding with [3H]Estradiol
T4 sequence (P03372 311-547 limits assumed): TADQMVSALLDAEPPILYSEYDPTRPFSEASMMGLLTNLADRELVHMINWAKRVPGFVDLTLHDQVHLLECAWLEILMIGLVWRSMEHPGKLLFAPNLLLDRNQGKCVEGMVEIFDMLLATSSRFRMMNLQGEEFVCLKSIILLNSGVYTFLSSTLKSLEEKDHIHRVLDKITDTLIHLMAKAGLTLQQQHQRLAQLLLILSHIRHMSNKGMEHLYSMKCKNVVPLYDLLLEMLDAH

[8] = target: T2, AKR1C3
Method: as §1, §2

[9] = target: T2, AKR1C3; details: 100 nM androstenedione, 24 hrs, LC-MS/MS (FIG. 2)
Method: as §1, §2

[10] = HLM Phase I + II, read-out: HLM Phase I + II CLint
[11] = HLM Phase I, read-out: HLM Phase I CLint
[12] = 10 μM inhibitor, purified AKR1C3 TLC based enzyme assay, read-out: AKR1C3 inhibition at 10 μM
[13] = read-out: % inhibition from control HSD-5 (10 uM)

Sequence of ER-β (Q92731 264-498 limits assumed, species assumed): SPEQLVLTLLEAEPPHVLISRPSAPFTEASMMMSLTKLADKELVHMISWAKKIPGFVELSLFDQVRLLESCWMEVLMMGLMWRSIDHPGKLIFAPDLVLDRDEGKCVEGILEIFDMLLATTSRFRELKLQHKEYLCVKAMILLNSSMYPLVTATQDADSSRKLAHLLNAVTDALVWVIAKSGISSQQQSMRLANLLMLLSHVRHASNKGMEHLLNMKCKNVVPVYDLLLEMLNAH

Compound	Ki [1] [nM]	HLM Phase I CLint ([2]; HLM Phase I)	HLM Phase I + II CLint ([2]; HLM Phase I + II) [µL/min/mg]	HLM Phase I + II T-1/2 ([2]; HLM Phase I + II)	microsomal CLint [2, 10] [µL/min/mg]	microsomal CLint [2, 11] [µL/min/mg]	EC50 ([3]; agonist mode, drug alone) [nM]	IC50 [3] [nM]	IC50 [4] [nM]	EC50 ([5]; agonist mode, drug alone) [nM]	IC50 [5] [nM]	inhibition at 10 µM [6, 12] [%]	inhibition at 10 µM [6, 13] [%]	Ki [7] [nM]	HLM Phase I T-1/2 ([2]; HLM Phase I)	IC50 [8] [nM]	Agonist ER-α ([3]; agonist mode, drug alone)	Agonist ER-β ([5]; agonist mode, drug alone)	Inhibition of AKR1C3 dependent conversion of androstenedione to testosterone [9]
O=c1c2ccc(O)cc2c(-c2ccc(C(F)(F)F)cc2)cn1-c1ccc(O)cc1 [Compound 13, 6-hydroxy-2-(4-hydroxyphenyl)-4-(4-(trifluoromethyl)phenyl)isoquinolin-1(2H)-one]	157	0.8 µL/min/mg	19.1	40 min and 36.12 min	17	< 1	> 10000	> 10000	451	> 10000	677	52	52	> 1510					
O=c1c2ccc(O)cc2c(-c2ccc(C(F)(F)F)cc2)cn1-c1ccc(C(F)(F)F)cc1 [Compound 30, 6-hydroxy-2,4-bis(4-(trifluoromethyl)phenyl)isoquinolin-1(2H)-one]	> 2200			7.9 min	88.1	6.8	> 10000	> 10000		> 10000	> 10000	30	30	> 1510	102.3 min				
O=C(O)/C=C/c1cn(-c2ccc(O)cc2)c(=O)c2c(O)cc(O)cc12 [Compound 15l, (E)-3-(6,8-dihydroxy-2-(4-hydroxyphenyl)-1-oxo-1,2-dihydroisoquinolin-4-yl)acrylic acid]	613								1710					> 1510					
O=c1c2ccc(O)cc2c(-c2ccc(O)cc2)cn1-c1ccc(CO)cc1 [Compound 14, 6-hydroxy-2-(4-(hydroxymethyl)phenyl)-4-(4-hydroxyphenyl)isoquinolin-1(2H)-one]	> 2200						> 10000	> 10000	1320	> 10000	> 10000			> 1510					
COc1ccc(-c2cn(-c3ccc(O)cc3)c(=O)c3ccc(O)cc23)cc1 [Compound 15b]	252			3.7 min	188	24.5	> 10000	> 10000		> 10000	128		47	2100	28.3 min				
O=c1c2ccc(O)cc2c(-c2ccc(C(F)(F)F)cc2)cn1-c1ccc(CBr)c(O)c1 [Compound 26, 2-(4-(bromomethyl)-3-hydroxyphenyl)-6-hydroxy-4-(4-(trifluoromethyl)phenyl)isoquinolin-1(2H)-one]	> 2200						> 10000	> 10000	289	> 10000	> 10000	50	50	> 1510					
COc1ccc(C=CC(=O)O)cc1OC [3,4,dimethoxy cinnamic acid]																> 10000			
O=c1c2c(O)cc(O)cc2c(Br)cn1-c1cccc(O)c1 [ZW-315-047]	7.23	20.16 µL/min/mg and 19.5 µL/min/mg and 23.7 µL/min/mg	460	1.56 min and 1.5 min	442	16		1720			2210		30	503	41.58 min and 33.55 min and 35.5 min and 29.3 min		Partial agonist	Partial agonist	
NC(=O)c1ccc(-n2cc(-c3ccc(C(F)(F)F)c(F)c3)c3cc(O)ccc3c2=O)cc1 [Compound 215, 4-(4-(3-fluoro-4-(trifluoromethyl)phenyl)-6-hydroxy-1-oxoisoquinolin-2(1H)-yl)benzamide]																			potently inhibited
